# Assays:
# BmOR1/Orco = BmOR1/Orco (Bombyx mori, UniProt Q5WA61); test: GCaMP6 calcium flux assay, wild-type BmOR1/Orco; assay type: cell-based
# Source text: (§1) The first insect pheromone system characterized at the molecular level is that of Bombyx mori, a moth long known to navigate towards its mate guided solely by pheromone cues with impressive navigation accuracy. Two PR/Orco complexes, BmOR1/BmOrco and BmOR3/BmOrco, have been linked to the behavioral responses to pheromones in B. mori (Figure 1A). The conspecific pheromone, bombykol, is detected through BmOR1/Orco and leads to sexual attraction. The heterospecific pheromone, bombykal, is sensed through BmOR3/Orco, and leads to suppression of mating behavior. We first characterized the extent to which both PR/Orco complexes are selective towards their cognate ligands. We used a previously established calcium flux functional assay where we co-transfected HEK293 cells with either BmOR1 or BmOR3, along with the coreceptor, BmOrco (here on referred to as Orco), and the fluorescent calcium reporter, GCaMP6 (Figure 1C). In this assay, ligand-activation of the heteromeric ion channel complexes by addition of either bombykol or bombykal leads to calcium influx, read out as GCaMP6 fluorescence changes that can be monitored in real-time and dose-dependent manner using a fluorescence plate reader. […] But we also found both PR/Orco complexes to be somewhat promiscuous: both complexes are activated by their non-cognate pheromones (bombykal for BmOR1/Orco and bombykol for BmOR3/Orco) with a response that is ~10 fold smaller than their cognate pheromones. […] Instead, two complexes with reciprocal specificities enable an unequivocal response to bombykal and bombykol across all concentrations, ensuring the behavioral accuracy needed for mate selection.
# (§2) The assay was performed similarly to method descriptions in previous studies.
# (§3) All DNA constructs used in this assay were cloned into a modified pME18 vector that contains a SV40 promotor.
# (§4) Each transfection condition (per well) contained a total of 300 ng of plasmids in 1:1:1 ratio of the GCaMP6, Orco, and the corresponding OR plasmid that was diluted in 4.8 uL of OptiMEM (Gibco) along with 0.1 uL of P3000. The mixture was incubated for 5 minutes and then further incubated for 20 minutes after being mixed with Lipofectamine 3000 (Invitrogen) diluted in OptiMEM. This mixture was scaled accordingly to batch transfect 50-100 wells per construct per plate.
# (§5) HEK293T cells were maintained at 37°C with 5% carbon dioxide and grown in high glucose DMEM enhanced with 10% FBS and 1% GlutaMAX (Gibco). Cells were detached with TrypLE Express Enzyme and resuspended in FluoroBrite DMEM (Gibco) with 10% FBS and 1% GlutaMAX (Gibco) to a concentration of 5 × 10^5 cells/ml. Cells were combined with each transfection condition and added to 2x16 wells of a 384-well plate (Grenier CELLSTAR). Cells were kept at 37°C for 18-20 hours before being used for fluorescence plate reading.
# (§6) Odorant plates were prepared using D300e (Hewlett Packard), a digital, non-contact dispenser. Briefly, stock solutions of bombykol and bombykal were prepared in DMSO and plated onto 384-plates (Greiner, Catalog #784201) in a titrating volume to obtain a concentration series ranging between 316 nM and 100 mM with a final volume of 0.2 µL.
# (§7) The odorant plates were kept at −20 °C until usage.
# (§8) On the day of the GCaMP6 assay, Bravo (Agilent), a versatile liquid handler was used to prepare both the odorant plate and the assay plate (transfected cell plate) prior to the fluorescence readout using the FDSS/µcell kinetic plate Imager (Hamamatsu, C13299).
# (§9) For the odorant plate, the DMSO dissolved stock solutions were diluted in 19.8 µL of Reading buffer (20 mM HEPES/NaOH (pH 7.4), 1× HBSS (Gibco), 3 mM Na2CO3, 1 mM MgSO4, and 5 mM CaCl2) to give a final concentration ranging from 3.16 nM to 1 mM with 1% DMSO. For the cell plate, the FluoroBrite DMEM (Gibco) was exchanged out with the […]
# (§10) The kinetics of the fluorescence change upon odorant addition were measured using the FDSS/µcell kinetic plate Imager (Hamamatsu, C13299). […]
# BmOR3/Orco = BmOR3/Orco (Bombyx mori, UniProt Q5FBE0); test: GCaMP6 calcium flux assay, wild-type BmOR3/Orco; assay type: cell-based
# Source text: as §1, §2, §3, §4, §5, §6, §7, §8, §9, §10
# OR1_S60A = OR1_S60A (Bombyx mori, UniProt Q5WA61, S60A); test: GCaMP6 calcium flux assay, BmOR1/Orco mutant S60A; assay type: cell-based
# Source text: (§11) The first insect pheromone system characterized at the molecular level is that of Bombyx mori, a moth long known to navigate towards its mate guided solely by pheromone cues with impressive navigation accuracy. Two PR/Orco complexes, BmOR1/BmOrco and BmOR3/BmOrco, have been linked to the behavioral responses to pheromones in B. mori (Figure 1A). The conspecific pheromone, bombykol, is detected through BmOR1/Orco and leads to sexual attraction. The heterospecific pheromone, bombykal, is sensed through BmOR3/Orco, and leads to suppression of mating behavior. We first characterized the extent to which both PR/Orco complexes are selective towards their cognate ligands. We used a previously established calcium flux functional assay where we co-transfected HEK293 cells with either BmOR1 or BmOR3, along with the coreceptor, BmOrco (here on referred to as Orco), and the fluorescent calcium reporter, GCaMP6 (Figure 1C). In this assay, ligand-activation of the heteromeric ion channel complexes by addition of either bombykol or bombykal leads to calcium influx, read out as GCaMP6 fluorescence changes that can be monitored in real-time and dose-dependent manner using a fluorescence plate reader. […]
# (§12) HEK293T cells were maintained at 37°C with 5% carbon dioxide and grown in high glucose DMEM enhanced with 10% FBS and 1% GlutaMAX (Gibco). […] Cells were kept at 37°C for 18-20 hours before being used for fluorescence plate reading. […]
# as §8
# (§13) For the odorant plate, the DMSO dissolved stock solutions were diluted in 19.8 µL of Reading buffer (20 mM HEPES/NaOH (pH 7.4), 1× HBSS (Gibco), 3 mM Na2CO3, 1 mM MgSO4, and 5 mM CaCl2) to give a final concentration ranging from 3.16 nM to 1 mM with 1% DMSO. […]
# as §10
# OR1_N93A = OR1_N93A (Bombyx mori, UniProt Q5WA61, N93A); test: GCaMP6 calcium flux assay, BmOR1/Orco mutant N93A; assay type: cell-based
# Source text: as §11, §12, §8, §13, §10
# OR1_N93T = OR1_N93T (Bombyx mori, UniProt Q5WA61, N93T); test: GCaMP6 calcium flux assay, BmOR1/Orco mutant N93T; assay type: cell-based
# Source text: as §11, §12, §8, §13, §10
# OR1_L340A = OR1_L340A (Bombyx mori, UniProt Q5WA61, L340A); test: GCaMP6 calcium flux assay, BmOR1/Orco mutant L340A; assay type: cell-based
# Source text: as §11, §12, §8, §13, §10
# OR1_L342A = OR1_L342A (Bombyx mori, UniProt Q5WA61, L342A); test: GCaMP6 calcium flux assay, BmOR1/Orco mutant L342A; assay type: cell-based
# Source text: as §11, §12, §8, §13, §10
# OR1_I343A = test: GCaMP6 calcium flux assay, BmOR1/Orco mutant I343A; assay type: cell-based, Bombyx mori
# Source text: as §11, with “We used a previously established calcium flux functional assay where we co-transfected HEK293 cells with either BmOR1 or BmOR3, along with the coreceptor, BmOrco (here on referred to as Orco), and the fluorescent calcium reporter, GCaMP6 (Figure 1C).” left out
# as §12, §10
# OR1_M344A = OR1_M344A (Bombyx mori, UniProt Q5WA61, M344A); test: GCaMP6 calcium flux assay, BmOR1/Orco mutant M344A; assay type: cell-based
# Source text: as §11, §12, §8, §13, §10
# OR1_F161A = test: GCaMP6 calcium flux assay, BmOR1/Orco mutant F161A; assay type: cell-based, Bombyx mori
# Source text: as §11, with “We used a previously established calcium flux functional assay where we co-transfected HEK293 cells with either BmOR1 or BmOR3, along with the coreceptor, BmOrco (here on referred to as Orco), and the fluorescent calcium reporter, GCaMP6 (Figure 1C).” left out
# as §12, §10
# OR3_K58A = OR3_K58A (Bombyx mori, UniProt Q5FBE0, K58A); test: GCaMP6 calcium flux assay, BmOR3/Orco mutant K58A; assay type: cell-based
# Source text: as §1, §2, §3, §4, §5, §6, §7, §8, §9, §10
# OR3_K58S = OR3_K58S (Bombyx mori, UniProt Q5FBE0, K58S); test: GCaMP6 calcium flux assay, BmOR3/Orco mutant K58S; assay type: cell-based
# Source text: as §1, §2, §3, §4, §5, §6, §7, §8, §9, §10
# OR3_K58Q = OR3_K58Q (Bombyx mori, UniProt Q5FBE0, K58Q); test: GCaMP6 calcium flux assay, BmOR3/Orco mutant K58Q; assay type: cell-based
# Source text: as §1, §2, §3, §4, §5, §6, §7, §8, §9, §10
# OR3_T91A = OR3_T91A (Bombyx mori, UniProt Q5FBE0, T91A); test: GCaMP6 calcium flux assay, BmOR3/Orco mutant T91A; assay type: cell-based
# Source text: as §11, §12, §8, §13, §10
# OR3_T91N = OR3_T91N (Bombyx mori, UniProt Q5FBE0, T91N); test: GCaMP6 calcium flux assay, BmOR3/Orco mutant T91N; assay type: cell-based
# Source text: as §11, §12, §8, §13, §10
# B. mori male moths = test system: B. mori male moths; design: method as in PMID 24744736, PMID 22836825; details: conspecific male moths; cited from earlier work
# Chain of OR3_K58A (Q5FBE0 entry or part of it K58A): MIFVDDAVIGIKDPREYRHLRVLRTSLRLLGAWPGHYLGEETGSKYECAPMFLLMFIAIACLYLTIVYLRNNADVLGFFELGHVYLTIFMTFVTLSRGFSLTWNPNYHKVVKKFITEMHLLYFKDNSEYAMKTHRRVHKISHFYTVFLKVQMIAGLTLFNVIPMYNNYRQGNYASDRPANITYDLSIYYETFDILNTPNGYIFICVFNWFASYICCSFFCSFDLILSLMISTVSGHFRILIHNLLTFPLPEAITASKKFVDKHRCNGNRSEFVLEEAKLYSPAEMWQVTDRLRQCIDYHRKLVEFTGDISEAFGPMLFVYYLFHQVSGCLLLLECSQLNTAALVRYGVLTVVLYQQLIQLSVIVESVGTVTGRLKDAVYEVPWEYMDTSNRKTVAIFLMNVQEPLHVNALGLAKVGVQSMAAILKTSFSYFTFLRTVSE
# Chain of OR3_K58A (Q7YT34 entry or part of it, stated change not applied, further chain): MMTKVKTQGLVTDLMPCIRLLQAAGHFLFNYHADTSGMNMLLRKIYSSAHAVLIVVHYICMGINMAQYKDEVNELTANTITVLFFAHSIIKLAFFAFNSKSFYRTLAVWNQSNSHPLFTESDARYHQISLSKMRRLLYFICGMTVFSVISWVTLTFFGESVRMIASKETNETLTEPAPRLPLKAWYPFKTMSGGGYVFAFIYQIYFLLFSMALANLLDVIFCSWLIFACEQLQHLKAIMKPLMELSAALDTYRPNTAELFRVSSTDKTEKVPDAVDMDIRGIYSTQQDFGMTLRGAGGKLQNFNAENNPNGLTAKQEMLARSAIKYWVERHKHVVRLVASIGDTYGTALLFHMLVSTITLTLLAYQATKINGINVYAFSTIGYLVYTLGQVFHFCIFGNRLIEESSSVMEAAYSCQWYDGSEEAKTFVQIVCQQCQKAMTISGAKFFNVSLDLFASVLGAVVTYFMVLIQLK
# Chain of OR1_N93T (Q5WA61 entry or part of it N93T): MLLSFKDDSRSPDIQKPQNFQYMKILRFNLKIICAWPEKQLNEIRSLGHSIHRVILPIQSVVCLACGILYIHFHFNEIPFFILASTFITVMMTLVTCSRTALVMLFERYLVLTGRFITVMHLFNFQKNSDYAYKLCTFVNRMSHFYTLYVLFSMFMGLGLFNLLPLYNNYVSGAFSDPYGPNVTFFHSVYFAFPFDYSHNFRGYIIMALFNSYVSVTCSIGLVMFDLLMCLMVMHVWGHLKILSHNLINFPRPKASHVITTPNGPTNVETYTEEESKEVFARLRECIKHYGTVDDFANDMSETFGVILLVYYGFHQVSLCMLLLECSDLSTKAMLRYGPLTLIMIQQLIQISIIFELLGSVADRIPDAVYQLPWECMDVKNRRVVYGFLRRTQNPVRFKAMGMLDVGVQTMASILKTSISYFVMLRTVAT
# Chain of OR1_N93T (Q7YT34 entry or part of it, stated change not applied, further chain): as the sequence (Q7YT34 entry or part of it, stated change not applied, further chain) above
# Chain of OR3_K58Q (Q5FBE0 entry or part of it K58Q): as the sequence (Q5FBE0 entry or part of it K58A) above, with A58Q counted along it
# Chain of OR3_K58Q (Q7YT34 entry or part of it, stated change not applied, further chain): as the sequence (Q7YT34 entry or part of it, stated change not applied, further chain) above
# Chain of OR1_N93A (Q5WA61 entry or part of it N93A): as the sequence (Q5WA61 entry or part of it N93T) above, with T93A counted along it
# Chain of OR1_N93A (Q7YT34 entry or part of it, stated change not applied, further chain): as the sequence (Q7YT34 entry or part of it, stated change not applied, further chain) above
# Chain of OR1_L340A (Q5WA61 entry or part of it L340A): as the sequence (Q5WA61 entry or part of it N93T) above, with T93N, L340A counted along it
# Chain of OR1_L340A (Q7YT34 entry or part of it, stated change not applied, further chain): as the sequence (Q7YT34 entry or part of it, stated change not applied, further chain) above
# Chain of OR1_M344A (Q5WA61 entry or part of it M344A): as the sequence (Q5WA61 entry or part of it N93T) above, with T93N, M344A counted along it
# Chain of OR1_M344A (Q7YT34 entry or part of it, stated change not applied, further chain): as the sequence (Q7YT34 entry or part of it, stated change not applied, further chain) above
# Chain of BmOR1/Orco (Q7YT34 entry or part of it): as the sequence (Q7YT34 entry or part of it, stated change not applied, further chain) above
# Chain of BmOR1/Orco (Q5WA61 entry or part of it): as the sequence (Q5WA61 entry or part of it N93T) above, with T93N counted along it
# Chain of OR1_L342A (Q7YT34 entry or part of it, stated change not applied): as the sequence (Q7YT34 entry or part of it, stated change not applied, further chain) above
# Chain of OR1_L342A (Q5WA61 entry or part of it L342A): as the sequence (Q5WA61 entry or part of it N93T) above, with T93N, L342A counted along it
# Chain of OR3_T91A (Q7YT34 entry or part of it, stated change not applied): as the sequence (Q7YT34 entry or part of it, stated change not applied, further chain) above
# Chain of OR3_T91A (Q5FBE0 entry or part of it T91A): as the sequence (Q5FBE0 entry or part of it K58A) above, with A58K, T91A counted along it
# Chain of OR1_S60A (Q7YT34 entry or part of it, stated change not applied): as the sequence (Q7YT34 entry or part of it, stated change not applied, further chain) above
# Chain of OR1_S60A (Q5WA61 entry or part of it S60A): as the sequence (Q5WA61 entry or part of it N93T) above, with S60A, T93N counted along it
# Chain of OR3_K58S (Q5FBE0 entry or part of it K58S): as the sequence (Q5FBE0 entry or part of it K58A) above, with A58S counted along it
# Chain of OR3_K58S (Q7YT34 entry or part of it, stated change not applied, further chain): as the sequence (Q7YT34 entry or part of it, stated change not applied, further chain) above
# Chain of BmOR3/Orco (Q5FBE0 entry or part of it): as the sequence (Q5FBE0 entry or part of it K58A) above, with A58K counted along it
# Chain of BmOR3/Orco (Q7YT34 entry or part of it, further chain): as the sequence (Q7YT34 entry or part of it, stated change not applied, further chain) above
# Chain of OR3_T91N (Q5FBE0 entry or part of it T91N): as the sequence (Q5FBE0 entry or part of it K58A) above, with A58K, T91N counted along it
# Chain of OR3_T91N (Q7YT34 entry or part of it, stated change not applied, further chain): as the sequence (Q7YT34 entry or part of it, stated change not applied, further chain) above
structure (smiles),measurement,setting,value
"CCC/C=C\C=C\CCCCCCCCCO [Bombykol, bombykol]",EC50,"BmOR1/Orco; EC50, HEK293 cells co-transfected with BmOR1, BmOrco, GCaMP6",0.27 µM
same,EC50,"BmOR1/Orco; Mean (-log EC50 ± SE), wild-type BmOR1/Orco",0.269 µM
same,Hill Coefficient (n± SE),BmOR1/Orco; wild-type BmOR1/Orco,1.6 ± 0.1
same,Max (ΔF/F ± SE),"BmOR1/Orco; wild-type BmOR1/Orco, ΔF/F at highest ligand concentration",0.98 ± 0.07 ΔF/F
same,EC50,"BmOR3/Orco; EC50, HEK293 cells co-transfected with BmOR3, BmOrco, GCaMP6",1.3 µM
same,EC50,"BmOR3/Orco; Mean (-log EC50 ± SE), wild-type BmOR3/Orco",1.29 µM
same,"response to non-cognate pheromone, fold smaller than cognate pheromone",BmOR3/Orco; bombykol vs cognate bombykal at BmOR3/Orco,~ 10 fold
same,Hill Coefficient (n± SE),BmOR3/Orco; wild-type BmOR3/Orco,1.0 ± 0.1
same,Max (ΔF/F ± SE),"BmOR3/Orco; wild-type BmOR3/Orco, ΔF/F at highest ligand concentration",0.61 ± 0.04 ΔF/F
same,EC50,OR1_S60A,0.501 µM
same,Hill Coefficient (n± SE),OR1_S60A; OR1_S60A,2.1 ± 0.3
same,Max (ΔF/F ± SE),OR1_S60A; OR1_S60A,1.1 ± 0.1 ΔF/F
same,EC50,OR1_N93A,5.01 µM
same,Hill Coefficient (n± SE),OR1_N93A; OR1_N93A,1.0 ± 0.3
same,Max (ΔF/F ± SE),OR1_N93A; OR1_N93A,0.63 ± 0.04 ΔF/F
same,EC50,OR1_N93T,1 µM
same,Hill Coefficient (n± SE),OR1_N93T; OR1_N93T,2.0 ± 0.3
same,Max (ΔF/F ± SE),OR1_N93T; OR1_N93T,1.02 ± 0.08 ΔF/F
same,EC50,OR1_L340A,2 µM
same,Hill Coefficient (n± SE),OR1_L340A; OR1_L340A,2.0 ± 0.3
same,Max (ΔF/F ± SE),OR1_L340A; OR1_L340A,0.48 ± 0.08 ΔF/F
same,EC50,OR1_L342A,0.794 µM
same,Hill Coefficient (n± SE),OR1_L342A; OR1_L342A,1.4 ± 0.2
same,Max (ΔF/F ± SE),OR1_L342A; OR1_L342A,0.87 ± 0.08 ΔF/F
same,Max (ΔF/F ± SE),OR1_I343A,0.14 ± 0.01 ΔF/F
same,EC50,OR1_M344A,1 µM
same,Hill Coefficient (n± SE),OR1_M344A; OR1_M344A,1.5 ± 0.3
same,Max (ΔF/F ± SE),OR1_M344A; OR1_M344A,0.84 ± 0.03 ΔF/F
same,Max (ΔF/F ± SE),OR1_F161A,0.04 ± 0.02 ΔF/F
same,EC50,OR3_K58A,0.251 µM
same,Hill Coefficient (n± SE),OR3_K58A; OR3_K58A,15 ± 6
same,Max (ΔF/F ± SE),OR3_K58A; OR3_K58A,0.15 ± 0.06 ΔF/F
same,EC50,OR3_K58S,3.16 µM
same,Hill Coefficient (n± SE),OR3_K58S; OR3_K58S,1.2 ± 0.3
same,Max (ΔF/F ± SE),OR3_K58S; OR3_K58S,0.42 ± 0.07 ΔF/F
same,EC50,OR3_K58Q,0.794 µM
same,Hill Coefficient (n± SE),OR3_K58Q; OR3_K58Q,5 ± 3
same,Max (ΔF/F ± SE),OR3_K58Q; OR3_K58Q,0.66± 0.06 ΔF/F
same,EC50,OR3_T91A,3.98 µM
same,Hill Coefficient (n± SE),OR3_T91A; OR3_T91A,0.9 ± 0.3
same,Max (ΔF/F ± SE),OR3_T91A; OR3_T91A,0.31 ± 0.05 ΔF/F
same,EC50,OR3_T91N,1 µM
same,Hill Coefficient (n± SE),OR3_T91N; OR3_T91N,1.7 ± 0.2
same,Max (ΔF/F ± SE),OR3_T91N; OR3_T91N,0.64 ± 0.07 ΔF/F
same,behavioral response,B. mori male moths,aggressive attraction behavior

# Reference: publication doi:10.1101/2025.05.30.657074, “A covalent recognition strategy enables conspecific mate identification” (bioRxiv, 2025)
